Experimental data taken from the kinase profiling compilation of Christmann-Franck et al. (2016).
Values joined by “and” are separate entries in the source; they are usually repeats but may differ in a detail not shown here. Equal entries are not always repeated.

Assays:
Assay in all cases: radiometric filter-binding kinase assay, Kinase HotSpot
Details in all cases: compound 0.5 µM; ATP 10 µM
ALK (human) = ALK (human) (UniProt Q9UM73)
MATK (human) = MATK (human) (UniProt P42679)
VRK1 (human) = VRK1 (human) (UniProt Q99986)
Sequence of VRK1 (human) (Q99986 whole entry, looked up): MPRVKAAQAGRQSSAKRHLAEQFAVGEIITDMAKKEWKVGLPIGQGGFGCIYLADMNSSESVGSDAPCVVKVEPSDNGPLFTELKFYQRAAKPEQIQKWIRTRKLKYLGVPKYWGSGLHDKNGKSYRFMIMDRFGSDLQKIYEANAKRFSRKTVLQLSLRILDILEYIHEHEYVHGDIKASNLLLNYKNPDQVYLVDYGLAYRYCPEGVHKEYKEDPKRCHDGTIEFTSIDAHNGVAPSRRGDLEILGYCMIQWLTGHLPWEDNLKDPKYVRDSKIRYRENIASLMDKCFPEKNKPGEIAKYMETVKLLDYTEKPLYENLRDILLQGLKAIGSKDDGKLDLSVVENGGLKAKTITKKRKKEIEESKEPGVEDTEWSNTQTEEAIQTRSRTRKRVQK

CDC42BPA (human) = CDC42BPA (human) (UniProt Q5VT25)
Sequence of CDC42BPA (human) (Q5VT25 whole entry, looked up): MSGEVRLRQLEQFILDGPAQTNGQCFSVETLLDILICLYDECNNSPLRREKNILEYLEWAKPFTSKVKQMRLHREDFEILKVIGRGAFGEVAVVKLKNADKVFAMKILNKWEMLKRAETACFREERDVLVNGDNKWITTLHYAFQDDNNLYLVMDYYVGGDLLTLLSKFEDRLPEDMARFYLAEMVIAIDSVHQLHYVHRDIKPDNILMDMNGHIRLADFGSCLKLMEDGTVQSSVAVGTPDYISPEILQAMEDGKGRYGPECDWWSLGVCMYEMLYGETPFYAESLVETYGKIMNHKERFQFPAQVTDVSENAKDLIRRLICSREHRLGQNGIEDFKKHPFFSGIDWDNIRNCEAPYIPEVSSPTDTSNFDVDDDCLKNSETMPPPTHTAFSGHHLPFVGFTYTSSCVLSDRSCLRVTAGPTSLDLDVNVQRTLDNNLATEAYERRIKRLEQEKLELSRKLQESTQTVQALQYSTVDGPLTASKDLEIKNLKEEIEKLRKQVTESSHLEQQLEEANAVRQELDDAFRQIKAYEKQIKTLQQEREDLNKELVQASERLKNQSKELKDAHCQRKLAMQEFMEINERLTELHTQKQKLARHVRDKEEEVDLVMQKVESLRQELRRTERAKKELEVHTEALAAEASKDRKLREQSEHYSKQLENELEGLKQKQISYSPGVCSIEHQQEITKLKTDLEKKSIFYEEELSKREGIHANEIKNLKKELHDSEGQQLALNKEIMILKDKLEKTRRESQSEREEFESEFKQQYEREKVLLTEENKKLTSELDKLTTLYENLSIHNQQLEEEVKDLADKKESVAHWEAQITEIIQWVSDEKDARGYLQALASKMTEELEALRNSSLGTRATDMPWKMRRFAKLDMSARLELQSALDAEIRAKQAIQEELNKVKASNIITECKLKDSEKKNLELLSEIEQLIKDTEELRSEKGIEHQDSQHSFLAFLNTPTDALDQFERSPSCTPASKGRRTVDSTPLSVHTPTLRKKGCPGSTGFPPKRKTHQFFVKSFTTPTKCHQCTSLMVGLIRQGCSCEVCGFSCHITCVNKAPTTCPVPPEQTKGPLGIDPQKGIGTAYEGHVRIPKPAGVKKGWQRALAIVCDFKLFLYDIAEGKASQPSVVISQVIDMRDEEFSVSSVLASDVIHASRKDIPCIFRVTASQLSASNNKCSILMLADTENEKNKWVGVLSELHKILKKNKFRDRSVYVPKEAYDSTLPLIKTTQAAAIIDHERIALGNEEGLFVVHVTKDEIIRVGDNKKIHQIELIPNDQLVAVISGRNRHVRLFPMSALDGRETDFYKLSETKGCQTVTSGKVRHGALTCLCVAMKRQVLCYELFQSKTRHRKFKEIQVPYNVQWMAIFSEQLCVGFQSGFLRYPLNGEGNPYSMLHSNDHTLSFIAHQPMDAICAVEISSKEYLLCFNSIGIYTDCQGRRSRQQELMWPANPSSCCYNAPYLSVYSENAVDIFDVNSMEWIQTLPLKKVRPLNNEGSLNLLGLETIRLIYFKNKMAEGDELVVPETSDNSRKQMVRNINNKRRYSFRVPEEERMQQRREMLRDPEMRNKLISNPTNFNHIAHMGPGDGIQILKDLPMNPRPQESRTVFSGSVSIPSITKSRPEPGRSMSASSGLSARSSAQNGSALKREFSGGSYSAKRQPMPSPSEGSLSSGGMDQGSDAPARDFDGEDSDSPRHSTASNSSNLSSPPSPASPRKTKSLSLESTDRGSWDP

PRKCE (human) = PRKCE (human) (UniProt Q02156)
CDK7 CCNH MNAT1 (human) = CDK7 CCNH MNAT1 (human) (UniProt P50613+P51948+P51946)
Sequence of CDK7 CCNH MNAT1 (human) (P50613 whole entry, looked up): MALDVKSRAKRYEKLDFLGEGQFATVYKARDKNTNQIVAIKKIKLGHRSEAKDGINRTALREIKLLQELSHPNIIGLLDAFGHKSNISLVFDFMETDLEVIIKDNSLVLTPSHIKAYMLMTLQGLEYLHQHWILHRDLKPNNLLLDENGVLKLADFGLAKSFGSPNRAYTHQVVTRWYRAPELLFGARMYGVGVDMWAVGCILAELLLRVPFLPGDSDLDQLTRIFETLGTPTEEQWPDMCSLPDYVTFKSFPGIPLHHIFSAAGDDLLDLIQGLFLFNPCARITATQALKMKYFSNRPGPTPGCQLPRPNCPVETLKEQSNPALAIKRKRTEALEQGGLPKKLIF
Sequence of CDK7 CCNH MNAT1 (human) (P51946 whole entry, looked up): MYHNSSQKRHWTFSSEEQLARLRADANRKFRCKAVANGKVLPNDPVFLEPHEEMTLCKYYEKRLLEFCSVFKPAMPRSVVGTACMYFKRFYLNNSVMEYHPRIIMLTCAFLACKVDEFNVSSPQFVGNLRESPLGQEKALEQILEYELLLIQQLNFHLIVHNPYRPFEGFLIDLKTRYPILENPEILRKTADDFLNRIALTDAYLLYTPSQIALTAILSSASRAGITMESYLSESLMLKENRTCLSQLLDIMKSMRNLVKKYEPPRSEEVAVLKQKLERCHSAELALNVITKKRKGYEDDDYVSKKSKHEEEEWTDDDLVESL
Sequence of CDK7 CCNH MNAT1 (human) (P51948 whole entry, looked up): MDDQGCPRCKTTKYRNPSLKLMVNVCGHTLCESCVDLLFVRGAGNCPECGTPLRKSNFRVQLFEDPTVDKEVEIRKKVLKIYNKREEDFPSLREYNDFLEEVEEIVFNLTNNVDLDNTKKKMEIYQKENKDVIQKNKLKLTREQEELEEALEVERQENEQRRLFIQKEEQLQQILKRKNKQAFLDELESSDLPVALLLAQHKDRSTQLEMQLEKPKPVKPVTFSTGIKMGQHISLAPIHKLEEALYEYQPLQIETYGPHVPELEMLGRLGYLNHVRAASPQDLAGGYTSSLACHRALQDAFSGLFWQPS

MAPKAPK2 (human) = MAPKAPK2 (human) (UniProt P49137)
CLK2 (human) = CLK2 (human) (UniProt P49760)
PRKG1 (human) = PRKG1 (human) (UniProt Q13976)
CDK6 CCND1 (human) = CDK6 CCND1 (human) (UniProt Q00534+P24385)
GSG2 (human) = GSG2 (human) (UniProt Q8TF76)
DAPK2 (human) = DAPK2 (human) (UniProt Q9UIK4)
MAP3K11 (human) = MAP3K11 (human) (UniProt Q16584)
Sequence of MAP3K11 (human) (Q16584 whole entry, looked up): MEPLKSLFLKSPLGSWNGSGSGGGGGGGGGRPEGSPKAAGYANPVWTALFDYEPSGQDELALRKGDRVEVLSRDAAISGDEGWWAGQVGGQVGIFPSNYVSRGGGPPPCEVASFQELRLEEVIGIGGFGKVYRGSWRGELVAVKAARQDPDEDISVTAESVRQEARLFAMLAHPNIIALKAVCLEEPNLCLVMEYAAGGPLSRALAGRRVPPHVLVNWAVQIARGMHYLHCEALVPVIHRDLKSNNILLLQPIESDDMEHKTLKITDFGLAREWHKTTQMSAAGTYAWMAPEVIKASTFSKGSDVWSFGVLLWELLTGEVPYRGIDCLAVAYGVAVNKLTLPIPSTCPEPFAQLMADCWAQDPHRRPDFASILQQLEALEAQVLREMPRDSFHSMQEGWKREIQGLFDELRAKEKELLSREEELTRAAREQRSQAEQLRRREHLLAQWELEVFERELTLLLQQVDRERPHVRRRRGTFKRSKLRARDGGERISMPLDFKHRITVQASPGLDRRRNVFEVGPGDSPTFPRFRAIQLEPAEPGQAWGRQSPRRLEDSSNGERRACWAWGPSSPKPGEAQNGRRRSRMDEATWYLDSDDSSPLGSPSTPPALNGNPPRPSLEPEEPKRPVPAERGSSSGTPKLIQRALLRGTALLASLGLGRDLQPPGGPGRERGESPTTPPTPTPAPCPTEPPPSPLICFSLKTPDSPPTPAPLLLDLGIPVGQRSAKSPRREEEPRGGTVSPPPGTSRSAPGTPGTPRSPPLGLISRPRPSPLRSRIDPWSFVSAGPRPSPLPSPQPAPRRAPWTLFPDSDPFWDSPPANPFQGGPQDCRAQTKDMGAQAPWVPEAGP

JAK3 JH1 JH2 (human) = JAK3 JH1 JH2 (human) (UniProt P52333)
ULK3 (human) = ULK3 (human) (UniProt Q6PHR2)
DCLK2 (human) = DCLK2 (human) (UniProt Q8N568)
NEK9 (human) = NEK9 (human) (UniProt Q8TD19)
NEK6 (human) = NEK6 (human) (UniProt Q9HC98)
MST4 (human) = MST4 (human) (UniProt Q9P289)
NLK (human) = NLK (human) (UniProt Q9UBE8)
Sequence of NLK (human) (Q9UBE8 whole entry, looked up): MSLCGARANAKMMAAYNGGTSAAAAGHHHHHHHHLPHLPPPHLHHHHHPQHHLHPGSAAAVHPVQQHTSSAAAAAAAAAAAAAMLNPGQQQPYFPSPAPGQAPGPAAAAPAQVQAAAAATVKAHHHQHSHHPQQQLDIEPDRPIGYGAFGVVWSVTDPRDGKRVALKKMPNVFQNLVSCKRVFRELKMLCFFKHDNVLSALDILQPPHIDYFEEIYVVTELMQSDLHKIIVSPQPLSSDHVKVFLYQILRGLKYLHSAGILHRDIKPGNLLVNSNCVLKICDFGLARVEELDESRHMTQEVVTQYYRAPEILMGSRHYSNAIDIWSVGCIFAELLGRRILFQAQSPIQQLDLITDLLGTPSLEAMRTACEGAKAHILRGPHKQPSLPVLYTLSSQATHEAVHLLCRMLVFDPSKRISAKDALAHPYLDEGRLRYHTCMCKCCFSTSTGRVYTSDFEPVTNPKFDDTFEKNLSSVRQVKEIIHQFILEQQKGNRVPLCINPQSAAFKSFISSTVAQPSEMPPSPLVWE

PRKCH (human) = PRKCH (human) (UniProt P24723)
PLK3 (human) = PLK3 (human) (UniProt Q9H4B4)
IKBKB (human) = IKBKB (human) (UniProt O14920)
CAMK2A (human) = CAMK2A (human) (UniProt Q9UQM7)
Sequence of CAMK2A (human) (Q9UQM7 whole entry, looked up): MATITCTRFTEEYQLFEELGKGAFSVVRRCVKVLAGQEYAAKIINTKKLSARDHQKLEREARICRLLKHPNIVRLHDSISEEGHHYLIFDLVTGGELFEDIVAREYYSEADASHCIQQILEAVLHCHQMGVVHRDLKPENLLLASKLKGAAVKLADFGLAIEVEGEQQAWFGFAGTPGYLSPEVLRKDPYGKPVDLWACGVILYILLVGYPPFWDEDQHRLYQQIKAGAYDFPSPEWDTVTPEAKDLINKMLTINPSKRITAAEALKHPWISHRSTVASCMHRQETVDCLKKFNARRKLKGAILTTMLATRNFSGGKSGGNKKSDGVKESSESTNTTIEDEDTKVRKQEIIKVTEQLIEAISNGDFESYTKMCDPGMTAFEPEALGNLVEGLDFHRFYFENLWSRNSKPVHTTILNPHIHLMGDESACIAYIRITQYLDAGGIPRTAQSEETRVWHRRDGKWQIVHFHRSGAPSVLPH

LYN (human) = LYN (human) (UniProt P07948)
CDK3 CCNE1 (human) = CDK3 CCNE1 (human) (UniProt Q00526+P24864)
MAP4K4 (human) = MAP4K4 (human) (UniProt O95819)
EPHA4 (human) = EPHA4 (human) (UniProt P54764)
PAK1 (human) = PAK1 (human) (UniProt Q13153)
CHEK2 (human) = CHEK2 (human) (UniProt O96017)
MAP3K7 TAB1 (human) = MAP3K7 TAB1 (human) (UniProt O43318+Q15750)
IGF1R (human) = IGF1R (human) (UniProt P08069)
STK39 (human) = STK39 (human) (UniProt Q9UEW8)
CSK (human) = CSK (human) (UniProt P41240)
AURKB (human) = AURKB (human) (UniProt Q96GD4)
PRKCG (human) = PRKCG (human) (UniProt P05129)
FLT3 (human) = FLT3 (human) (UniProt P36888)
CDK6 CCND3 (human) = CDK6 CCND3 (human) (UniProt P30281+Q00534)
EPHA6 (human) = EPHA6 (human) (UniProt Q9UF33)
BRAF (human) = BRAF (human) (UniProt P15056)
EGFR (human) = EGFR (human) (UniProt P00533)

| Compound | residual activity (ALK (human)) | residual activity (MATK (human)) | residual activity (VRK1 (human)) | residual activity (CDC42BPA (human)) | residual activity (PRKCE (human)) | residual activity (CDK7 CCNH MNAT1 (human)) | residual activity (MAPKAPK2 (human)) | residual activity (CLK2 (human)) | residual activity (PRKG1 (human)) | residual activity (CDK6 CCND1 (human)) | residual activity (GSG2 (human)) | residual activity (DAPK2 (human)) | residual activity (MAP3K11 (human)) | residual activity (JAK3 JH1 JH2 (human)) | residual activity (DCLK2 (human)) | residual activity (NEK9 (human)) | residual activity (NEK6 (human)) | residual activity (MST4 (human)) | residual activity (NLK (human)) | residual activity (PRKCH (human)) | also measured |
| --- | --- | --- | --- | --- | --- | --- | --- | --- | --- | --- | --- | --- | --- | --- | --- | --- | --- | --- | --- | --- | --- |
| CS(=O)(=O)CCNCc1ccc(-c2ccc3ncnc(Nc4ccc(OCc5cccc(F)c5)c(Cl)c4)c3c2)o1 | 104% | 75.9% | 101% | 88.2% | 98% | 109% | 94.7% | 95.1% | 95.4% and 99.7% | 100% | 66.5% | 103% | 106% | 96.2% | 101% | 100% | 93.7% | 110% | 108% | 110% | residual activity (ULK3 (human)): 106%; residual activity (PLK3 (human)): 105%; residual activity (IKBKB (human)): 81%; residual activity (CAMK2A (human)): 98.6%; residual activity (LYN (human)): 103% and 104%; residual activity (CDK3 CCNE1 (human)): 94.6%; residual activity (MAP4K4 (human)): 111%; residual activity (EPHA4 (human)): 101%; residual activity (PAK1 (human)): 110%; residual activity (CHEK2 (human)): 96.8%; residual activity (MAP3K7 TAB1 (human)): 89%; residual activity (IGF1R (human)): 87.4%; residual activity (STK39 (human)): 100%; residual activity (CSK (human)): 106%; residual activity (AURKB (human)): 98.4%; residual activity (PRKCG (human)): 79.3%; residual activity (FLT3 (human)): 92.6%; residual activity (CDK6 CCND3 (human)): 120%; residual activity (EPHA6 (human)): 115% |
| CN(C)CCCn1cc(C2=C(c3c[nH]c4ccccc34)C(=O)NC2=O)c2ccccc21 | 87% | 100% | 95.5% | 97.1% | 0.493% | 92.1% | 85.4% | 28% | 38.3% and 59.3% | 58.3% | 93.6% | 105% | 61% | 81.5% | 95% | 100% | 96.3% | 37.2% | 94% | 7.67% | residual activity (BRAF (human)): 103%; residual activity (EGFR (human)): 94%; residual activity (PLK3 (human)): 94.9%; residual activity (IKBKB (human)): 119%; residual activity (CAMK2A (human)): 35.2%; residual activity (LYN (human)): 104% and 84.1%; residual activity (CDK3 CCNE1 (human)): 93.2%; residual activity (MAP4K4 (human)): 55.9%; residual activity (EPHA4 (human)): 88.2%; residual activity (PAK1 (human)): 84.2%; residual activity (CHEK2 (human)): 68.5%; residual activity (MAP3K7 TAB1 (human)): 93.6%; residual activity (IGF1R (human)): 91.7%; residual activity (STK39 (human)): 91.9%; residual activity (CSK (human)): 97%; residual activity (AURKB (human)): 86.6%; residual activity (PRKCG (human)): 17.6%; residual activity (FLT3 (human)): 5.6%; residual activity (CDK6 CCND3 (human)): 73.3% |
| O=C1NC(=O)c2c1c1c3ccccc3[nH]c1n1cncc21 | 84.6% | 99.8% | 78.1% | 92.7% | 84.9% | 92.3% | 98.9% | 94.7% | 85.9% and 93.8% | 65.7% | 33.5% | 43.8% | 57.5% | 140% | 82.3% | 77.4% | 88.7% | 69.4% | 87.9% | 74.8% | residual activity (BRAF (human)): 101%; residual activity (EGFR (human)): 92.7%; residual activity (PLK3 (human)): 48.2%; residual activity (IKBKB (human)): 95.9%; residual activity (CAMK2A (human)): 55.1%; residual activity (LYN (human)): 94.8% and 96.2%; residual activity (CDK3 CCNE1 (human)): 76.7%; residual activity (MAP4K4 (human)): 21.2%; residual activity (EPHA4 (human)): 98.6%; residual activity (PAK1 (human)): 93.9%; residual activity (CHEK2 (human)): 21.2%; residual activity (MAP3K7 TAB1 (human)): 63.4%; residual activity (IGF1R (human)): 76.8%; residual activity (STK39 (human)): 104%; residual activity (CSK (human)): 83.3%; residual activity (AURKB (human)): 25.2%; residual activity (PRKCG (human)): 117%; residual activity (FLT3 (human)): 9.86%; residual activity (CDK6 CCND3 (human)): 74.3% |
| CN(C)c1ccc(/C=C2\C(=O)Nc3ccccc32)cc1 | 99.7% | 95.3% | 89% | 101% | 92.6% | 99.4% | 106% | 99.7% | 86.9% and 99.7% | 101% | 88.5% | 105% | 88.4% | 113% | 100% | 99.8% | 96.9% | 90.9% | 102% | 92.3% | residual activity (BRAF (human)): 101%; residual activity (EGFR (human)): 92.1%; residual activity (PLK3 (human)): 97%; residual activity (IKBKB (human)): 105%; residual activity (CAMK2A (human)): 106%; residual activity (LYN (human)): 108% and 97.8%; residual activity (CDK3 CCNE1 (human)): 98.7%; residual activity (MAP4K4 (human)): 74.5%; residual activity (EPHA4 (human)): 95.2%; residual activity (PAK1 (human)): 95.7%; residual activity (CHEK2 (human)): 91.6%; residual activity (MAP3K7 TAB1 (human)): 100%; residual activity (IGF1R (human)): 101%; residual activity (STK39 (human)): 96.6%; residual activity (CSK (human)): 96.9%; residual activity (AURKB (human)): 61.4%; residual activity (PRKCG (human)): 96.8%; residual activity (FLT3 (human)): 15.3%; residual activity (CDK6 CCND3 (human)): 96.4% |
| O=C1c2ccccc2-c2nc3nnnn3nc21 | 83.5% | 99.7% | 90.5% | 91.6% | 99% | 94.1% | 104% | 92.1% | 109% and 133% | 59.6% | 79.2% | 83.4% | 69% | 90.4% | 86.5% | 119% | 96.3% | 91.8% | 98.2% | 49.2% | residual activity (ULK3 (human)): 103%; residual activity (EGFR (human)): 37%; residual activity (PLK3 (human)): 28.5%; residual activity (IKBKB (human)): 73.4%; residual activity (CAMK2A (human)): 84.7%; residual activity (CDK3 CCNE1 (human)): 73.4%; residual activity (MAP4K4 (human)): 89%; residual activity (EPHA4 (human)): 61.1%; residual activity (PAK1 (human)): 96.1%; residual activity (CHEK2 (human)): 54.7%; residual activity (MAP3K7 TAB1 (human)): 89.9%; residual activity (IGF1R (human)): 91.1%; residual activity (STK39 (human)): 89.2%; residual activity (CSK (human)): 84.8%; residual activity (AURKB (human)): 84.7%; residual activity (PRKCG (human)): 59.3%; residual activity (FLT3 (human)): 100%; residual activity (CDK6 CCND3 (human)): 9.93%; residual activity (EPHA6 (human)): 106% |
